Measurements taken from patent US10479792B2, “Compounds” (GlaxoSmithKline Intellectual Property Development Limited, priority 2015, dated 2019).

Key:
Leishmania donovani [1] = assay: Intramacrophage Leishmania donovani assay (Assay 1), average number of amastigotes per cell (potency readout); format: cell-based; conditions: THP-1, 96 h, amastigotes in PMA-differentiated THP-1 macrophages, 96 h incubation, read-out: pEC50 value against Leishmania donovani (converted)
Experimental: Assay 1. Intramacrophage Leishmania donovani Assay
The intramacrophage Leishmania assay was performed using a modified version of the method described in De Rycker et al. (Antimicrob Agents Chemother. 2013 July; 57(7):2913-22. Comparison of a high-throughput high-content intracellular Leishmania donovani assay with an axenic amastigote assay. De Rycker M, Hallyburton I, Thomas J, Campbell L, Wyllie S, Joshi D, Cameron S, Gilbert I H, Wyatt P G, Frearson J A, Fairlamb A H, Gray D W.). Procedure: 350 nl of compound was pre-dispensed into 384 well sterile intermediary plates. For single point screening, amphotericin B was added to all wells of column 24 as a positive control (final concentration 2 μM) and DMSO to column 23. For potency determinations, ten-point, one in three dilution curves were created with the highest concentration being 50 μM and on each plate a control curve of amphotericin B was included. Controls were as follows: columns 11 and 12: DMSO, columns 23 and 24: amphotericin B (final concentration 2 μM). To the intermediary plates, 35 μl of THP-1 media was added and plates were shaken for >5 min to ensure complete mixing. THP-1 cells (8,000 per well, 50 μl) were plated into black clear-bottom 384 well plates (Corning) in presence of 20 nM PMA. After 20 min at RT, the plates were incubated at 37° C. under 5% CO2 in a humidified incubator for 75 h. The cells were then washed with […] sterile phosphate buffered saline (PBS) supplemented with 1 mM CaCl2, 0.5 mM MgCl2, 0.1% (w/v) bovine serum albumin (PBS-A) and amastigotes were added to all wells at a multiplicity of infection of 5 (40,000 amastigotes per well). After 40 min at RT, plates were returned to the incubator. Amastigotes were incubated in the presence of THP-1 macrophages for 16 h. Any remaining extracellular amastigotes were subsequently removed with an overflow wash of 1 mL PBS-A per well (wash buffer is being aspirated from the top of the well as it is being dispensed) followed by addition of 25 μl of the compound pre-dilutions using a Fluidx Ipette-pro pipetting station. The final dilution of each compound was 200-fold. Plates were incubated for 96 h and then washed (250 μl PBS-A) and fixed (4% (v/v) formaldehyde-PBS, 30 min, RT). After fixation, the wells were washed with 250 μl PBS, stained (10 μg/mL DAPI, 0.4 μg mL-1 HCS Cellmask Deep Red in PBS+0.1% (v/v) Triton X-100, 30 min, RT) and washed with 250 μl PBS. Finally, PBS+0.05% (v/v) thimerosal was added to the wells, the plates were sealed and imaged on a high-content microscope (GE IN Cell 2000) using a 10× objective. Image analysis was carried out with GE IN Cell Analyzer 1000 Workstation using the “Multi Target Analysis” module. Settings for segmentation were as follows: nuclei: minimum area: 142.384 μm2, sensitivity: 81, method: top-hat; cells: characteristic area: 2500 μm2, sensitivity: 60, method: multiscale top-hat; organelles (amastigotes): granule size 1-3, 3 scales, sensitivity: 90, detection in entire cell. For each well, i) THP-1 cell count (cytotoxicity readout) and ii) average number of amastigotes per cell (potency readout) were calculated, both in terms of pEC50 values.

Trypanosoma cruzi = Trypanosoma cruzi intracellular assay (Assay 2); format: cell-based; conditions: infected H9C2 rat cardiomyocytes, 72 h incubation, read-out: pEC50 value against Trypanosoma cruzi (converted)
Experimental: (§1) Compounds were dispensed into black 384-well assay plates (Greiner) by acoustic dispensing (LabCyte ECHO). For potency determinations, eleven-point, one in three dilution curves were generated, with a top concentration of 50 μM. H9C2 rat cardiomyocytes cells were dispensed in T225 tissue culture flasks and after 4 hours they were infected during 18 hours with T. cruzi trypomastigotes in the same T225 tissue culture flasks at a multiplicity of infection of 1. Next, any remaining free trypomastigotes were washed away with PBS and the infected H9C2 cells were harvested by trypsinisation. The infected H9C2 cells were then plated into 384-well plates containing the compounds to be tested, at 2500 cells per well in DMEM media with 2% FBS, 1% Penicillin/Streptomicin, 2 mM L-Glutamine, 1 mM Na Pyruvate and 25 mM HEPES. After 72 h incubation at 37° C. in presence of 5% CO2, the plates were fixed and stained with 4% formaldehyde and 2 μM Draq5 for 3 hours at room temperature. The plates were imaged on a Perkin Elmer Opera high-content imaging system using a 20× air objective. Images were analyzed using the Acapella building blocks system (Perkin Elmer). The image analysis algorithm first identified the H9C2 nuclei followed by demarcation of the cytoplasm and identification of intracellular amastigotes. This algorithm reported mean number of parasites per H9C2 cell, the percentage of infected H9C2 cells and the total number of H9C2 cells.

Leishmania donovani [2] = assay: Leishmania donovani intracellular assay (Assay 5); format: cell-based; conditions: THP-1, 96 h, eGFP amastigotes in THP-1 cells, 96 h incubation, read-out: pEC50 value against Leishmania donovani (converted)
Experimental: (§2) Assay 5. Leishmania donovani Intracellular Assay
(§3) Compounds were dispensed into black 384-well assay plates (Greiner) by acoustic dispensing (LabCyte ECHO). For potency determinations, eleven-point, one in three dilution curves were generated, with a top concentration of 50 μM. THP-1 human monocytes cells were dispensed in T225 tissue culture flasks and differentiated using 30 nM of PMA, after 24 hours they were infected overnight using Leishmania donovani expressing Green Fluorescent Protein (eGFP) amastigotes in the same T225 tissue culture flasks at a multiplicity of infection of 10. Next, any remaining free amastigotes were washed away with PBS and the infected THP-1 cells were harvested by trypsinisation. The infected cells were then plated into 384-well plates containing the compounds to be tested, at 3000 cells per well in RPMI media with 2% FBS and 25 mM Sodium bicarbonate. After 96 h incubation at 37° C. in presence of 5% CO2, the plates were fixed with 4% formaldehyde for 30 minutes, washed with PBS and stained with 0.1 mg/mL of DAPI for 30 minutes and washed again with PBS. The plates were imaged on a Perkin Elmer Opera high-content imaging system using a 20× air objective with two expositions, one for DAPI stain and other for eGFP. Images were analysed using the Acapella building blocks system (Perkin Elmer). The image analysis algorithm first identified the THP-1 nuclei followed by demarcation of the cytoplasm and identification of intracellular amastigotes. This algorithm reported mean number of parasites per THP-1 cell, the percentage of infected THP-1 cells and the total number of THP-1 cells.

THP-1 cells = assay: Leishmania donovani intracellular assay (Assay 5), THP-1 cytotoxicity; format: cell-based; conditions: human, 96 h incubation, read-out: cytotoxicity against THP-1 cells, pEC50 (converted)
Experimental: as §2, §3

RnH9c2 cells = assay: Trypanosoma cruzi intracellular assay (Assay 2), host cell cytotoxicity; format: cell-based; conditions: rat, H9C2 cardiomyocytes infected with Trypanosoma cruzi, 72 h incubation, read-out: cytotoxicity against RnH9c2 cells, pEC50 (converted)
Experimental: as §1

[3] = Solubility assay, ChemiLuminescent Nitrogen Detection (CLND) (Assay 4); format: physicochemical; conditions: phosphate buffered saline (PBS) pH 7.4, aqueous buffer, kinetic from dmso stock, PBS pH 7.4, from 10 mM DMSO stock, 1 h at room temperature
Experimental: Assay 4. Solubility Assay—ChemiLuminescent Nitrogen Detection (CLND) I. Compounds A 10 mM DMSO stock solution of the compound was prepared. Solvents and Buffers Organic solvents of HPLC grade were used. Ultra pure water (Milli-Q grade) was used. Buffers were prepared with ultra pure water and filtered using 0.45μ cameo filters. Aqueous Buffer Solution: Phosphate Buffer Saline (PBS) @ pH 7.4 was prepared from Sigma dry powder packs, P-3813. Each one was diluted to 1 liter with deionised water. The pH was checked before the solution was used II. Procedures. • a) DMSO concentration was measured. DMSO blanks and ondansetron and caffeine standards were added to the plate (column 12, A, B, C, & D for the blanks and E, F, G, & H for the standards). Plates were covered with foil. When the UV and CLND detectors baselines appeared to be stable, the CLND was zeroed. • b) Once DMSO concentration measurements were complete, a filtration plate was prepared from each parent plate by diluting 5 μl of the 10 mM DMSO stock solution to […] with pH7.4 PBS. • c) After the plates were prepared, they were covered with a plate lid and left to incubate for 1 h at room temperature. • d) Sample was filtered using MILLIPORE MultiScreen Solubility (MSSLBPC10) Filtration Plates, to NUNC V well plates. […]

Structure (SMILES)	EC50 (Leishmania donovani [1])	EC50 (Trypanosoma cruzi)	EC50 (Leishmania donovani [2])	EC50 at 96 h (THP-1 cells)	EC50 at 72 h (RnH9c2 cells)	solubility at 1 h [3]
O=C(Nc1ccc(F)c(-c2ccn3c(N4CCOCC4)cnc3n2)c1)N1CC[C@H](F)C1 [Example 23a]	> 50.1 µM	31.6 µM	> 50.1 µM	–	–	–
O=C(Nc1ccc(F)c(-c2ccn3c(-c4ccccn4)cnc3n2)c1)N1CCCC1 [Example 26, N-(4-fluoro-3-(3-(pyridin-2-yl)imidazo[1,2-a]pyrimidin-7-yl)phenyl)pyrrolidine-1-carboxamide]	0.251 to 10 µM	–	0.126 to 10 µM	12.6 to 50.1 µM	39.8 µM	–
O=C(Nc1ccc(F)c(-c2ccn3c(C4CCOCC4)cnc3n2)c1)N1CCCC1 [Example 19, N-(4-fluoro-3-(3-(tetrahydro-2H-pyran-4-yl)imidazo[1,2-a]pyrimidin-7-yl)phenyl)pyrrolidine-1-carboxamide]	0.251 to 10 µM	–	0.126 to 10 µM	–	39.8 µM	–
CC(C)Cc1cnc2nc(-c3cc(NC(=O)N4CCCC4)ccc3F)ccn12 [Example 17, N-(4-fluoro-3-(3-isobutylimidazo[1,2-a]pyrimidin-7-yl)phenyl)pyrrolidine-1-carboxamide]	0.251 to 10 µM	–	0.126 to 10 µM	–	5.01 µM	–
C[C@H]1CCCN1C(=O)Nc1ccc(F)c(-c2ccn3c(N4CCOCC4)cnc3n2)c1 [Example 33a]	> 50.1 µM	12.6 µM	12.6 to 39.8 µM	–	–	–
O=C(Nc1ccc(F)c(-c2ccn3ccnc3n2)c1)N1CCCC1 [Example 16, N-(4-fluoro-3-(imidazo[1,2-a]pyrimidin-7-yl)phenyl)pyrrolidine-1-carboxamide]	12.6 to 20 µM	–	12.6 to 39.8 µM	12.6 to 50.1 µM	–	–
O=C(Nc1ccc(F)c(-c2cnn3c(-c4ccccc4)cnc3n2)c1)N1CCCC1 [Example 7, N-(4-fluoro-3-(7-phenylimidazo[1,2-b][1,2,4]triazin-3-yl)phenyl)pyrrolidine-1-carboxamide]	0.251 to 10 µM	–	–	–	20 µM	–
Cc1cccc(-c2cnc3nc(-c4cc(NC(=O)N5CCCC5)ccc4F)ccn23)n1 [Example 37, N-(4-fluoro-3-(3-(6-methylpyridin-2-yl)imidazo[1,2-a]pyrimidin-7-yl)phenyl)pyrrolidine-1-carboxamide]	–	–	0.126 to 10 µM	12.6 to 50.1 µM	25.1 µM	–
O=C(Nc1cccc(-c2ccn3c(-c4ccccc4)cnc3n2)c1)N1CCCC1 [Example 2, N-(3-(3-phenylimidazo[1,2-a]pyrimidin-7-yl)phenyl)pyrrolidine-1-carboxamide]	0.251 to 10 µM	–	0.126 to 10 µM	12.6 to 50.1 µM	–	–
COc1cccc(-c2cnc3nc(-c4cc(NC(=O)N5CCCC5)ccc4F)ccn23)n1.Cl [Example 28, N-(4-fluoro-3-(3-(6-methoxypyridin-2-yl)imidazo[1,2-a]pyrimidin-7-yl)phenyl)pyrrolidine-1-carboxamide]	–	–	0.126 to 10 µM	12.6 to 50.1 µM	7.94 µM	< 1 µM
O=C(Nc1ccc(F)c(-c2ccn3c(N4CCCCC4)cnc3n2)c1)N1CCCC1 [Example 5, N-(4-fluoro-3-(3-(piperidin-1-yl)imidazo[1,2-a]pyrimidin-7-yl)phenyl)pyrrolidine-1-carboxamide]	0.251 to 10 µM	–	0.126 to 10 µM	12.6 to 50.1 µM	–	–
